Data as given in PubChem BioAssay AID608 (Sanford-Burnham Center for Chemical Genomics, 2007).
Calls of active or inactive are those of the source. No rule for the calls is given here.

What follows are compounds tested against Peptidyl-prolyl cis-trans isomerase FKBP1A (Homo sapiens) (UniProt P62942) (assay: small-molecule binding to FKBP12 – biophysical, NMR detection (AID 608)). Details: purified FKBP12.
Sequence of Peptidyl-prolyl cis-trans isomerase FKBP1A (Homo sapiens) (P62942 whole entry, looked up): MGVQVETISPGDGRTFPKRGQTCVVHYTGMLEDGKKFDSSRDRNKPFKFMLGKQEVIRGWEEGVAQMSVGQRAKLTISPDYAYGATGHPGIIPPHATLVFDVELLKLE

Row | Compound | Kd
1 | CCC1(CC)C(=O)N=C(N)NC1=O | > 4 mM (inactive)
2 | CCOc1ccc(NS(=O)(=O)N2CCOCC2)cc1 | > 4 mM (inactive)
3 | O=C1CSC(=S)N1N1C(=O)C2C3C=CC(C3)C2C1=O (configuration not stated) | > 4 mM (inactive)
4 | CC(C)n1c(-c2ccncc2)n[nH]c1=S | > 4 mM (inactive)
5 | O=C(Cc1cccs1)N1CCOCC1 | > 4 mM (inactive)
6 | NC(=O)CNC(=O)c1ccccc1 | > 4 mM (inactive)
7 | Clc1ncc2[nH]cnc2n1 | > 4 mM (inactive)
8 | C[C@H]1[C@H](C)CC[C@]2(CO)CC[C@]3(C)C(=CCC4[C@@]5(C)CC[C@H](O)C(C)(C)C5CC[C@]43C)[C@H]12 (some centres not stated) | > 4 mM (inactive)
9 | Cc1cc(C)c(C(N)=O)c(=S)[nH]1 | > 4 mM (inactive)
10 | NCc1cccc2nsnc12 | > 4 mM (inactive)
11 | Nc1ccc(Oc2ccccc2)nc1 | > 4 mM (inactive)
12 | Cc1cccc(C(C)C)c1NC(=O)c1cccnc1 | > 4 mM (inactive)
13 | O=C(NCc1cccs1)c1ccc2c(c1)OCCO2 | > 4 mM (inactive)
14 | Cc1ccccc1NC(=O)N1CCOCC1 | > 4 mM (inactive)
15 | CC1SC(=NC(=O)c2ccncc2)NC1=O (configuration not stated) | > 4 mM (inactive)
16 | OC1CCCN(Cc2ccccc2)C1 (configuration not stated) | > 4 mM (inactive)
17 | COc1ccccc1/C=C/CN1CCOCC1 | > 4 mM (inactive)
18 | CC(C)c1nnc(N)s1 | > 4 mM (inactive)
19 | O=C(O)C1NCCc2ccccc21 (configuration not stated) | > 4 mM (inactive)
20 | CCOc1ccccc1C(=O)NC1=NCCS1 | > 4 mM (inactive)
21 | N#Cc1sc2nc3c(c(-c4cccnc4)c2c1N)CCC3 | > 4 mM (inactive)
22 | CNCc1ccco1 | > 4 mM (inactive)
23 | O=c1c2ccccc2nc(-c2ccco2)n1-c1nccs1 | > 4 mM (inactive)
24 | O=C(Nc1nccs1)c1cccnc1 | > 4 mM (inactive)
25 | Clc1cccc(Cl)c1Cn1c(-c2cscn2)nc2ccccc21 | inactive

Row | Compound | Kd
26 | OCC1Cc2ccccc2CN1 (configuration not stated) | > 4 mM (inactive)
27 | CCc1ccccc1OCC(=O)N1CCOCC1 | > 4 mM (inactive)
28 | Cc1nc2cc(Cl)ccc2n1CCO | > 4 mM (inactive)
29 | CC1=C(C(=O)Nc2ccccc2)SCCO1 | > 4 mM (inactive)
30 | Nc1ccc(F)cc1F | > 4 mM (inactive)
31 | OCC1CCCCCN1 (configuration not stated) | > 4 mM (inactive)
32 | NC(C(=O)O)C(O)C(=O)O (configuration not stated) | > 4 mM (inactive)
33 | c1ccc(-c2nnc3sc(-c4ccncc4)nn23)cc1 | > 4 mM (inactive)
34 | O=c1[nH]c(=O)c2[nH]cnc2[nH]1 | > 4 mM (inactive)
35 | c1cc2c(cc1[C@H]1OC[C@H]3[C@@H]1CO[C@H]3c1ccc3c(c1)OCO3)OCO2 | > 4 mM (inactive)
36 | NC(=O)CC(=O)NC12CC3CC(CC(C3)C1)C2 | > 4 mM (inactive)
37 | O=C(O)c1ccc(N2CCCCC2)cc1 | > 4 mM (inactive)
38 | CC(=O)O[C@@H]1CC2C(C)(C)C(=O)C3OC3[C@]2(C)C2CC[C@@]3(C)[C@H](c4ccoc4)OC(=O)C4OC43[C@@]21C (some centres not stated) | > 4 mM (inactive)
39 | O=C(O[C@@H]1Cc2c(O)cc(O)cc2O[C@@H]1c1cc(O)c(O)c(O)c1-c1c([C@H]2Oc3cc(O)cc(O)c3C[C@H]2O)cc(O)c(O)c1O)c1cc(O)c(O)c(O)c1 | > 4 mM (inactive)
40 | COC(=O)c1cnccc1C(F)(F)F | > 4 mM (inactive)
41 | Nc1nnc(SCc2ccccc2Cl)s1 | > 4 mM (inactive)
42 | c1ccc(C[N+]23CCN(CC2)c2ccccc23)cc1 | > 4 mM (inactive)
43 | O=C(O)CN1CCN(C2CCCC2)CC1 | > 4 mM (inactive)
44 | CC1SC(=NC(=O)c2ccco2)NC1=O (configuration not stated) | > 4 mM (inactive)
45 | COc1cc(O)c(C)c(O)c1 | > 4 mM (inactive)
46 | O=C1NC(=S)N/C1=C/c1ccc(O)c(Cl)c1 | > 4 mM (inactive)
47 | COc1cccc(O)c1O | > 4 mM (inactive)
48 | O=C(NCCCSc1ncccn1)Nc1ncccn1 | > 4 mM (inactive)
49 | CC1=C(/C=C/C(C)=C/C=C/C(C)=C/C=C/C=C(C)/C=C/C=C(C)/C=C/C2=C(C)CCCC2(C)C)C(C)(C)CCC1 | > 4 mM (inactive)
50 | CC(C)C(=O)NC(=S)N1CCOCC1 | > 4 mM (inactive)

Row | Compound | Kd
51 | O=C(O)c1cccnc1Oc1ccccc1 | > 4 mM (inactive)
52 | Nc1ccccc1C(=O)CC(N)C(=O)O (configuration not stated) | > 4 mM (inactive)
53 | O=C1NC(=S)N/C1=C\c1cccc([N+](=O)[O-])c1 | > 4 mM (inactive)
54 | O=C(O)c1ccc2sccc2c1 | > 4 mM (inactive)
55 | COC(=O)C1Cc2ccccc2N1 (configuration not stated) | > 4 mM (inactive)
56 | OCc1ccccc1CN1CCOCC1 | > 4 mM (inactive)
57 | OCCOc1ccc(C2=NCCO2)cc1 | > 4 mM (inactive)
58 | COC(=O)c1c(C)cc(OC(=O)c2c(C)cc(O)c(C=O)c2O)c(C)c1O | > 4 mM (inactive)
59 | O=S(=O)(Nc1cccnc1Cl)c1ccccc1 | > 4 mM (inactive)
60 | Nc1c(F)c(F)nc(F)c1F | > 4 mM (inactive)
61 | OCc1ccc2nsnc2c1 | > 4 mM (inactive)
62 | O=C(CSc1ccnc(=O)[nH]1)NCc1ccco1 | > 4 mM (inactive)
63 | Cc1cn2c(-c3cccnc3)nnc2s1 | > 4 mM (inactive)
64 | S=C(NC1=NCCS1)Nc1ccccc1 | > 4 mM (inactive)
65 | CC1=C(/C=C/C(C)=C/C=C/C(C)=C/C=C/C=C(C)/C=C/C=C(C)/C=C/C(=O)[C@]2(C)C[C@@H](O)CC2(C)C)C(C)(C)C[C@H](O)C1 | > 4 mM (inactive)
66 | Cc1ccc2cccc(SCC(=O)N3CCOCC3)c2n1 | inactive
67 | CC1(C)C(=O)[C@@H]2C[C@@]3(O)C4=CC(=O)O[C@@H](c5ccoc5)[C@]4(C)CCC3C(C)(C2=O)[C@H]1CC(=O)O (some centres not stated) | > 4 mM (inactive)
68 | NC(=O)c1cc(N)ccc1N1CCCCC1 | > 4 mM (inactive)
69 | COc1ccc2c(c1)OC1(O)COc3cc(OC)c(OC)cc3C1=C2 (configuration not stated) | > 4 mM (inactive)
70 | CC[C@]12CCCN3CCc4c(n(c5ccccc45)[C@](O)(C(=O)OC)C1)[C@@H]32 | > 4 mM (inactive)
71 | N#Cc1cnn(Cc2ccc(Cl)cc2)c1N | > 4 mM (inactive)
72 | S=c1[nH]c2cccnc2[nH]1 | > 4 mM (inactive)
73 | O=C(O)CCC1NCC2CC1CN1CCCCC21 (configuration not stated) | > 4 mM (inactive)
74 | Cc1cc(NC(=O)Cc2c(F)cccc2Cl)no1 | > 4 mM (inactive)
75 | CS(=O)(=O)N1CCC(C(=O)NC2CCCC2)CC1 | > 4 mM (inactive)

Row | Compound | Kd
76 | CCCCCCCCCCCC1=C(O)C(=O)C=C(O)C1=O | > 4 mM (inactive)
77 | CC(=O)c1c(C)nc(-c2ccc(F)cc2)n1O | > 4 mM (inactive)
78 | CC(=O)c1c(O)cc(O)cc1O | > 4 mM (inactive)
79 | c1ccc(-c2noc(-c3ccc4c(c3)OCO4)n2)nc1 | > 4 mM (inactive)
80 | O=C1CC(c2c[nH]c3ccccc23)C(=O)N1 (configuration not stated) | > 4 mM (inactive)
81 | O=C(NC1CCS(=O)(=O)C1)c1ccccc1 (configuration not stated) | > 4 mM (inactive)
82 | Nc1ccc2c(c1)CCC2=O | > 4 mM (inactive)
83 | CC(=O)NCS(=O)(=O)c1ccc(C)cc1 | > 4 mM (inactive)
84 | NC(=O)c1sc2ccccc2c1Cl | > 4 mM (inactive)
85 | Cc1ccc(O)c(NC(=O)c2ccco2)c1 | > 4 mM (inactive)
86 | COc1ccccc1NC(=O)C1CCC(=O)N1 (configuration not stated) | > 4 mM (inactive)
87 | O=C(O)CC1NCCNC1=O (configuration not stated) | > 4 mM (inactive)
88 | CN(C)c1ccc(CNn2cnnc2)cc1 | > 4 mM (inactive)
89 | CCNC(=S)N1CCC(C(N)=O)CC1 | > 4 mM (inactive)
90 | Nc1c2c3c(sc2nc(=O)n1N)CCCC3 | > 4 mM (inactive)
91 | NC(=O)Cn1nc(-c2ccco2)ccc1=O | > 4 mM (inactive)
92 | COc1ccc(N=C2NC(=O)CS2)cc1 | > 4 mM (inactive)
93 | c1ccc(-c2n[nH]c(-c3ccccn3)n2)nc1 | > 4 mM (inactive)
94 | CC(C)(C)c1ccc(SCC(N)=O)cc1 | 0.455 mM
95 | NS(=O)(=O)c1ccccc1Cl | > 4 mM (inactive)
96 | Cc1cc(C(=O)Nc2sc3c(c2C#N)CCC3)no1 | > 4 mM (inactive)
97 | CCCCCC1C(=O)CCC1CC(=O)O (configuration not stated) | > 4 mM (inactive)
